The source of these data is patent US20080125424A1, “Derivatives of urea and related diamines, methods for their manufacture, and uses therefor” (priority 2006, published 2008).

The target in assay [1] is T1, Human Ca2+ receptor (Homo sapiens, UniProt P41180).
T1 construct: expressed in transfected cells
T1 sequence (P41180 20-1078): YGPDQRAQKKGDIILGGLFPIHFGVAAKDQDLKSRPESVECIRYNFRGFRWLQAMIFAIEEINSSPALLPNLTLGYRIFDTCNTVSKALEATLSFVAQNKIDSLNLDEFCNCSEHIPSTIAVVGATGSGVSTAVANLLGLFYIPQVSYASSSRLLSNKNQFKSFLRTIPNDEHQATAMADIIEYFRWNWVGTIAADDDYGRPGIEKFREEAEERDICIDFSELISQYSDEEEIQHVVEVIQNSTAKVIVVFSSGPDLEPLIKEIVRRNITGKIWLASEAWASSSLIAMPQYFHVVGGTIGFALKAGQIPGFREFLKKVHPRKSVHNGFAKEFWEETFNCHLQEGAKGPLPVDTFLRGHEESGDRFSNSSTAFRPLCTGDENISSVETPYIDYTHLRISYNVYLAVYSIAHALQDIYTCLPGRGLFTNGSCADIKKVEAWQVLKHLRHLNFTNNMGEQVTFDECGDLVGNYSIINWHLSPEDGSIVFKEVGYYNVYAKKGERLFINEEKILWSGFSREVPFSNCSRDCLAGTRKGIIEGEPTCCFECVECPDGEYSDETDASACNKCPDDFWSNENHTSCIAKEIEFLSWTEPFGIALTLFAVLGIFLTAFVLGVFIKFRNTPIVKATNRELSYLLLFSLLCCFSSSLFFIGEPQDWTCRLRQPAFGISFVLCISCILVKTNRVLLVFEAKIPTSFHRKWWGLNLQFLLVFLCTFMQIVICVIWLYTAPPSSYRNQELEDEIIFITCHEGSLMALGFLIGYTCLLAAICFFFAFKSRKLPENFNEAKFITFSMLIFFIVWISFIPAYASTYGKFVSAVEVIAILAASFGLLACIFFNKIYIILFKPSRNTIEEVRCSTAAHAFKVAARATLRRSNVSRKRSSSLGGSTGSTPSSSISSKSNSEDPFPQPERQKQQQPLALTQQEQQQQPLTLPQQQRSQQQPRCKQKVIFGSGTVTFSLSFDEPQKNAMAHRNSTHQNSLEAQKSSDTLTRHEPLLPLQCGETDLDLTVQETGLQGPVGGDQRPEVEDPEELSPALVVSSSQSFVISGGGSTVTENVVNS
Put plainly: Luciferase reporter assay in CHO cells (ET8-5-5) transfected with human Ca2+ receptor. The following applies: CHO ET8-5-5 cells, 5 h incubation with test compound. The class given is cell-based. How it is done: The activities of the compounds of the present invention on calcium receptors were measured in accordance with the method described hereinbelow.
Human Ca^2+ receptor cDNA was subcloned into the mammalian expression vector PECE as described in Ellis, L et al. (1986) Cell vol. 45, 721-732. The luciferase reporter was subcloned into the mammalian expression vector pGL3basic (Promega). Resistance to neomycin (pSV2-neo) and resistance to puromycin (pSG5-puro) were used as selection markers. All these plasmids were simultaneously transfected into CHO cells by calcium phosphate precipitation. Transfected cells were grown in F12 medium containing 7.5% foetal bovine serum, 100 U/ml penicillin and 100 μg/ml streptomycin (as 1% Pen-Strep, BioWithaker), neomycin (750 μg/ml) and puromycin (5 μg/ml). Neomycin and puromycin resistant colonies were subcloned and assayed for activation against a range of calcium concentration. Clone 8-5-5 was used to assess the effects of compounds on [Ca^2+]i. This stably transfected cell line was termed ET8-5-5.
For measurements of [Ca^2+]i, the cells were recovered from tissue culture flasks by brief treatment with Trypsin-EDTA (Invitrogen; containing 0.53 mM EDTA.4Na in HBSS) and then seeded in culture-treated 96-well plates (Greiner) at 50 k cells per well in the growth media (same as above, except neomycin 400 μg/ml). Cells were grown in 37° C. TC incubator for 24 h. The culture medium was then removed and replaced with F12 medium, 1% Pen-Strep for an overnight foetal bovine serum starvation in 37° C. TC incubator. Then the starvation medium was removed and replaced with a test buffer (20 mM HEPES pH 7.4, 125 mM NaCl, 5 mM KCl, 1 mM MgCl2, 5.5 mM Glucose, 2 g/l lysosyme and 0.3 mM CaCl2) supplemented with a range of test compound concentrations crossed against a super-added range of CaCl2 concentrations. The cells were incubated with the test compounds for 5 h in 37° C. TC incubator. Then the test buffer was discarded, and cells were added with the substrate for Luciferase from SteadyLite Kit (Perkin-Elmer). The luminescence was recorded.

Assay [2] deals with T2, human parathyroid cell Ca2+ receptor (hPCaR) (Homo sapiens, UniProt P41180).
T2 construct: expressed in transfected cells
T2 sequence (P41180 20-1078): T1 sequence (P41180 20-1078)
Kind of assay: [Ca2+]i fluorescence assay in HEK 293 4.0-7 cells expressing hPCaR. Type of assay: cell-based. The following applies: buffer with 1 mM CaCl2. In short, it runs like this: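 HEK 293 clone 4.0-7 stably expressing human parathyroid Ca2+ receptor, seeded overnight, then loaded 90 min at room temperature with calcium dye in parathyroid cell buffer (pH 7.45) with 0.5% BSA and 1 mM CaCl2. Fluorescence after compound addition read at ex 485/em 530 nm.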

Where a name gives a salt, the structure may show the parent alone.

As to `O=C(O)CCCN(CCC(c1ccccc1)c1ccccc1)C(=O)Nc1cccc(C(=O)O)c1` [Example 65, 3-[3-(3-carboxy-propyl)-3-(3,3-diphenyl-propyl)-ureido]-benzoic acid], the EC50 in assay [1] lay within 1000 to 10000 nM. Still for that read-out and setting: to `COC(=O)c1cccc(NC(=O)N(CCC(c2ccccc2)c2ccccc2)CC(=O)OC(C)(C)C)c1` [Example 63, 3-[3-tert-butoxycarbonylmethyl-3-(3,3-diphenyl-propyl)-ureido]-benzoic acid methyl ester] belongs 100 to 1000 nM; to `CCOC(=O)CCCN(CCC(c1ccccc1)c1ccccc1)C(=O)Nc1cccc(C(=O)OC)c1` [Example 64, 3-[3-(3,3-diphenyl-propyl)-3-(3-ethoxycarbonyl-propyl)-ureido]-benzoic acid methyl ester], under 100 nM. The same measure, in the same setting: to `COc1ccc(S(=O)(=O)NCCN(CCC(c2ccccc2)c2ccccc2)C(=O)Nc2nc3ccccc3s2)cc1` [Example 172, N-{2-[3-Benzothiazol-2-yl-1-(3,3-diphenylpropyl)-ureido]-ethyl}-4-methoxybenzenesulfonamide] belongs 100 to 1000 nM.

As for `O=C(CCCN(CCC(c1ccccc1)c1ccccc1)C(=O)Nc1nc2ccccc2s1)NC1CCCCC1` [Example 97, 3-(benzo[d]thiazol-2-yl)-1-(4-(cyclohexylamino)-4-oxobutyl)-1-(3,3-diphenylpropyl)urea], in assay [2], the concentration giving a half-maximal response (EC50) fell in the range of 100 to 1000 nM. For the compound `CN(C)CC(C)(C)CNCCN(CCC(c1ccccc1)c1ccccc1)C(=O)Nc1nc2ccccc2s1` [Example 150, 3-Benzothiazol-2-yl-1-[2-(3-dimethylamino-2,2-dimethyl-propylamino)-ethyl]-1-(3,3-diphenyl-propyl)-urea trihydrochloride], the EC50 in assay [2] lay within 1000 to 5000 nM. Compound `CCOC(=O)CCCN(CCC(c1ccccc1)c1ccccc1)C(=O)Nc1nc2ccccc2s1` [Example 116, ethyl 4-(3-(benzo[d]thiazol-2-yl)-1-(3,3-diphenylpropyl)ureido)butanoate] displayed a half-maximal effective concentration (EC50) in assay [2] of 100 to 1000 nM. On the same count and under the same terms, to `CC(C)N1CCN(C(=O)CCCN(CCC(c2ccccc2)c2ccccc2)C(=O)Nc2nc3ccccc3s2)CC1` [Example 118, 3-(benzo[d]thiazol-2-yl)-1-(3,3-diphenylpropyl)-1-(4-(4-isopropylpiperazin-1-yl)-4-oxobutyl)urea] belongs 100 to 1000 nM; to `O=C(Nc1nc2ccccc2s1)N(CCN[C@@H]1CCCNC1)CCC(c1ccccc1)c1ccccc1` [Example 145, (R)-3-(benzo[d]thiazol-2-yl)-1-(3,3-diphenylpropyl)-1-(2-(piperidin-3-ylamino)ethyl)urea], under 100 nM; to `CC(=O)Nc1ccc(S(=O)(=O)NCCN(CCC(c2ccccc2)c2ccccc2)C(=O)Nc2nc3ccccc3s2)cc1` [Example 170, N-(4-{2-[3-Benzothiazol-2-yl-1-(3,3-diphenylpropyl)-ureido]-ethylsulfamoyl}-phenyl)acetamide], 100 to 1000 nM.

`CS(=O)(=O)c1ccc(-c2csc(NC(=O)N(CCCC(=O)O)CCC(c3ccccc3)c3ccccc3)n2)cc1` [Example 79, 4-(1-(3,3-diphenylpropyl)-3-(4-(4-(methylsulfonyl)phenyl)thiazol-2-yl)ureido)butanoic acid] came in with an EC50 in assay [2] of under 100 nM.

For `O=C(O)CN(CCC(c1ccccc1)c1ccccc1)C(=O)Nc1cccc(C(=O)O)c1` [Example 66, 3-[3-carboxymethyl-3-(3,3-diphenyl-propyl)-ureido]-benzoic acid], the EC50 in assay [1] was in the range of 1000 to 10000 nM.

`COC(=O)c1ccccc1S(=O)(=O)NCCN(CCC(c1ccccc1)c1ccccc1)C(=O)Nc1nc2ccccc2s1` [Example 171, 2-{2-[3-Benzothiazol-2-yl-1-(3,3-diphenyl-propyl)-ureido]-ethylsulfamoyl}-benzoic acid methyl ester]: the EC50 in assay [1] lay within 100 to 1000 nM. Consider `CSCCN(CCC(c1ccccc1)c1ccccc1)C(=O)Nc1nc(-c2ccc(NS(C)(=O)=O)cc2)c(Cl)s1` [Example 137, 3-(5-chloro-4-(4-(methylsulfonamido)phenyl)thiazol-2-yl)-1-(3,3-diphenylpropyl)-1-(2-(methylthio)ethyl)urea], for which the EC50 in assay [2] was under 100 nM. Compound `O=C(Nc1nc2ccccc2s1)N(CCNS(=O)(=O)c1ccc(C(F)(F)F)cc1)CCC(c1ccccc1)c1ccccc1` [Example 173, N-{2-[3-Benzothiazol-2-yl-1-(3,3-diphenylpropyl)-ureido]-ethyl}-4-trifluoromethyl-benzenesulfonamide] yielded a half-maximal effective concentration (EC50) in assay [1] of 100 to 1000 nM.

Regarding `C[C@H]1CNCCN1C(=O)CCN(CCC(c1ccccc1)c1ccccc1)C(=O)Nc1nc2ccccc2s1` [Example 123, (S)-3-(benzo[d]thiazol-2-yl)-1-(3,3-diphenylpropyl)-1-(3-(2-methylpiperazin-1-yl)-3-oxopropyl)urea], the EC50 in assay [2] was in the range of 1000 to 5000 nM. The same measure, in the same setting: to `O=C1CC[C@H](NCCN(CCC(c2ccccc2)c2ccccc2)C(=O)Nc2nc(-c3ccccc3)c(Cl)s2)CN1` [Example 142, (S)-3-(5-chloro-4-phenylthiazol-2-yl)-1-(3,3-diphenylpropyl)-1-(2-(6-oxopiperidin-3-ylamino)ethyl)urea] belongs under 100 nM; to `O=C(Nc1nc2ccccc2s1)N(CCNC1CCOCC1)CCC(c1ccccc1)c1ccccc1` [Example 156, 3-Benzothiazol-2-yl-1-(3,3-diphenyl-propyl)-1-[2-(tetrahydro-pyran-4-ylamino)-ethyl]-urea], 1000 to 5000 nM. Same read-out and setting: to `O=C(Nc1nc2ccccc2s1)N(CCNC1CCNCC1)CCC(c1ccccc1)c1ccccc1` [Example 143, 3-(benzo[d]thiazol-2-yl)-1-(3,3-diphenylpropyl)-1-(2-(piperidin-4-ylamino)ethyl)urea] belongs under 100 nM. Same read-out and setting: to `O=C1CC[C@@H](NCCN(CCC(c2ccccc2)c2ccccc2)C(=O)Nc2nc(-c3ccccc3)c(Cl)s2)CN1` [Example 147, (R)-3-(5-chloro-4-phenylthiazol-2-yl)-1-(3,3-diphenylpropyl)-1-(2-(6-oxopiperidin-3-ylamino)ethyl)urea] belongs under 100 nM; to `CS(=O)(=O)Nc1ccc(-c2csc(NC(=O)N(CCCC(N)=O)CCC(c3ccccc3)c3ccccc3)n2)cc1` [Example 68, 1-(4-amino-4-oxobutyl)-1-(3,3-diphenylpropyl)-3-(4-(4-(methylsulfonamido)phenyl)thiazol-2-yl)urea], under 100 nM.

In general, EC50 refers to the concentration that produces a half-maximal response. The low end stands for a more potent agent, the high end for a less potent agent.
